For eleven compounds, inhibition and IC50 results are on record in patent publication EP1144369B1 (Wyeth Holdings Corporation, priority 1999, dated 2000).

For one test, the target named is T1, MMP-1 (Homo sapiens, UniProt P03956).
T1 sequence (P03956 100-469): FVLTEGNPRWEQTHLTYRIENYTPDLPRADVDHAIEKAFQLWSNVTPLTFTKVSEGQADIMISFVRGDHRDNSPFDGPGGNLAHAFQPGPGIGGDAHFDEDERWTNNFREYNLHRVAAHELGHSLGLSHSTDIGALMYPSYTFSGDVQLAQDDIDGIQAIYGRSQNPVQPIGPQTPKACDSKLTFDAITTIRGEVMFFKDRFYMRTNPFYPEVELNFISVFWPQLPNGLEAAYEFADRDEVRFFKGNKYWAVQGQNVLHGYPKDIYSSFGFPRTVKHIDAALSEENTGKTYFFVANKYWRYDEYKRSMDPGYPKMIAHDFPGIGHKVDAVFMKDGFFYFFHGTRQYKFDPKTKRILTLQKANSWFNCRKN
The test can be described thus: MMP-1 inhibition (thiopeptide or fluorescent peptide substrate). Type of test: biochemical. As to conditions: for inhibition at 10 µM: read-out: IC50 (nM) or % Inhibition (µM) MMP-1; for IC50: plain number = IC50. As for the experimental part: (§1) The enzyme activity is measured by the rate of the color increase. The thiopeptide substrate is made up fresh as a 20 mM stock in 100% DMSO and the DTNB is dissolved in 100% DMSO as a 100 mM stock and stored in the dark at room temperature. Both the substrate and DTNB are diluted together to 1 mM with substrate buffer (50 mM HEPES pH 7.5, 5 mM CaCl2) before use. The stock of enzyme is diluted with buffer (50 mM HEPES, pH 7.5, 5 mM CaCl2, 0.02% Brij) to the desired final concentration.
(§2) Alternatively, a fluorescent peptide substrate is used. In this test procedure, the peptide substrate contains a fluorescent group and a quenching group. Upon cleavage of the substrate by an MMP, the fluorescence that is generated is quantitated on the fluorescence plate reader. The assay is run in HCBC assay buffer (50mM HEPES, pH 7.0, 5 mM Ca^+2, 0.02% Brij, 0.5% Cysteine), with human recombinant MMP-1, MMP-9, or MMP-13. The substrate is dissolved in methanol and stored frozen in 1 mM aliquots. For the assay, substrate and enzymes are diluted in HCBC buffer to the desired concentrations. Compounds are added to the 96 well plate containing enzyme and the reaction is started by the addition of substrate.
(§3) For either the thiopeptide or fluorescent peptide test procedures, the slope of the line is calculated and represents the reaction rate. The linearity of the reaction rate is confirmed (r^2 >0.85). The mean (x±sem) of the control rate is calculated and compared for statistical significance (p<0.05) with drug-treated rates using Dunnett's multiple comparison test.

The next test deals with MMP-9 (Homo sapiens, UniProt P14780). As to the kind of experiment: MMP-9 inhibition (thiopeptide or fluorescent peptide substrate). Type of test: biochemical. As for the experimental part: as §1, §2, §3
For the next test, the target named is MMP-13 (Homo sapiens, UniProt P45452). The test can be described thus: MMP-13 inhibition (thiopeptide or fluorescent peptide substrate). In kind it is biochemical. The method, then:
as §1, §2, §3

Another test concerns THP-1 cells. The test can be described thus: THP-1 soluble protein assay (LPS-stimulated human monocytic THP-1 cells). Type of test: cell-based. As to conditions: Homo sapiens, LPS-stimulated THP-1 cells, read-out: % Inhib. @ 3µM THP. The source says: Mitogenic stimulation of THP-1 cells cause differentiation into macrophage like cells with concomitant secretion of tumor necrosis factor (TNF-a) and TNF receptor (TNF-R p75/80 and TNF-R p55/60) and Interleukin-8 (IL-8), among other proteins. In addition, non-stimulated THP-1 cells shed both the p75/80 and the p55/60 receptors over time. The release of membrane bound TNF-α and possibly TNF-R p75/80 and TNF-R p55/60, but not IL-8, is mediated by an enzyme called TNF-a converting enzyme or TACE.
THP-1 cells (from ATCC) are a human monocytic cell line which were obtained from the peripheral blood of a person with acute monocytic leukemia. They can be grown in culture and differentiated into macrophage like cells by stimulation with mitogens.
Each vial of cells are cultured for about two weeks prior to being used for an assay and then are used for only 4 to 6 weeks to screen compounds.
Cell exposure to DMSO was limited to 0.1 % final concentration. […] Compounds can be evaluated for their effect on basal (non-stimulated) shedding of the receptors by replacing the LPS with […] of THP-1 media. Plates are placed into an incubator set at 5% CO2 and at 37°C. After 4 hours of incubation, […] of tissue culture supernatant (TCS) is removed for use in an TNF-a ELISA. Following 24 hours of incubation, […] of TCS is removed and used for analysis in TNF-R p75/80, TNF-R p55/60 and IL-8 ELISAs.
In addition, at the 24 hours timepoint, and the cells for each treatment group are collected by resuspension in 500 µl/well of THP-1 media and transferred into a FACS tube. […] The samples are run on a Becton Dickinson FaxCaliber FLOW cytometry machine and the amount of dye taken up by each cell is measured in the high red wavelength (FL3). Only cells with compromised membranes (dead or dying) can take up PI. The percent of live cells is calculated by the number of cells not stained with PI, divided by the total number of cells in the sample. The viability values calculated for the drug treated groups were compared to the viability value calculated for the vehicle treated mitogen stimulated group ("vehicle positive control") to determine the "percent change from control". This "percent change from control" value is an indicator of drug toxicity.
The quantity of soluble TNF-a, TNF-R p75/80 and TNF-R p55/60 and IL-8 in the TCS of the THP-1 cell cultures are obtained with commercially available ELISAs from R&D Systems, by extrapolation from a standard curve generated with kit standards. The number of cells that either take up or exclude PI are measured by the FLOW cytometry machine and visualized by histograms using commercially available Cytologic software for each treatment group including all controls.
Biological variability in the magnitude of the response of THP-1 cell cultures requires that experiments be compared on the basis of percent change from "vehicle positive control" for each drug concentration. Percent change in each soluble protein evaluated from the "vehicle positive control" was calculated for each compound concentration with the following formula: % Change =(pg/ml(compound) - pg/ml (veh pos control))/(pg/ml (veh pos control) - pg/ml(veh neg control))x 100 [formula]
For the soluble protein (TNF-a, p75/80, p55/60, IL-8) studies under stimulated conditions, the mean pg/ml of duplicate wells were determined and the results expressed as percent change from "vehicle positive control". For the soluble protein (p75/80 and p55/60 receptors) studies under non-stimulated conditions, the mean pg/ml of duplicate wells were determined and the results expressed as percent change from "vehicle positive control" utilizing the following formula: % Change =(pg/ml (compound neg control) - pg/ml (veh neg control)/(pg/ml (veh neg control))X 100 [formula]
IC50 values for each compound are calculated by non-linear regression analysis using customized software utilizing the JUMP statistical package.

For test [1], the target named is TNF-α converting enzyme (TACE) (Homo sapiens, UniProt P78536). The test can be described thus: TACE inhibition (fluorescent peptidyl substrate). Type of test: biochemical. To be noted: read-out: IC50 (nM) or % Inhibition (µM) TACE. As for the experimental part: Using 96-well black microtiter plates, each well receives a solution composed of 10 µL TACE (final concentration 1µg/mL), 70µL Tris buffer, pH 7.4 containing 10% glycerol (final concentration 10 mM), and 10 µL of test compound solution in DMSO (final concentration 1µM, DMSO concentration <1%) and incubated for 10 minutes at room temperature. The reaction is initiated by addition of a fluorescent peptidyl substrate (final concentration 100 µM) to each well and then shaking on a shaker for 5 sec.
The reaction is read (excitation 340 nm, emission 420 nm) for 10 min. and the increase in fluorescence over time is plotted as a linear line. The slope of the line is calculated and represents the reaction rate.
The linearity of the reaction rate is confirmed (r^2 >0.85). The mean (x±sem) of the control rate is calculated and compared for statistical significance (p<0.05) with drug-treated rates using Dunnett's multiple comparison test.

MMP-9, sequence (P14780 94-707): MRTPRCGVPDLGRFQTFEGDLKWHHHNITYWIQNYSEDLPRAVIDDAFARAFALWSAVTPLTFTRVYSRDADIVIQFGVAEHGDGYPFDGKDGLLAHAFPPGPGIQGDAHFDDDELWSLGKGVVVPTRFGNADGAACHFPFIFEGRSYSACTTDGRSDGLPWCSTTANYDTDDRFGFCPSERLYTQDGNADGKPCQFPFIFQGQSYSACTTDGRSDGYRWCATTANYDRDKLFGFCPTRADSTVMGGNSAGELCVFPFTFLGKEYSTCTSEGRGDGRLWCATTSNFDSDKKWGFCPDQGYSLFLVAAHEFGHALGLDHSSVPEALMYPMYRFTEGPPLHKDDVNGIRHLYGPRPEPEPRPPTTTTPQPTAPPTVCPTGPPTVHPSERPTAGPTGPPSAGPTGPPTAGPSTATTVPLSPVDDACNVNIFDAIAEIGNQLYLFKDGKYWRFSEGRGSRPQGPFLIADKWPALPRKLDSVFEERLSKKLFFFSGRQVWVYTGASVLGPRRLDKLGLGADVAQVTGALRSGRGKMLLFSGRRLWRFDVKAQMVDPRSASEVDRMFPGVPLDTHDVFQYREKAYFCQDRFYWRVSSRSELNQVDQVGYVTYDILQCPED
TNF-α converting enzyme (TACE), sequence (P78536 215-824, species assumed): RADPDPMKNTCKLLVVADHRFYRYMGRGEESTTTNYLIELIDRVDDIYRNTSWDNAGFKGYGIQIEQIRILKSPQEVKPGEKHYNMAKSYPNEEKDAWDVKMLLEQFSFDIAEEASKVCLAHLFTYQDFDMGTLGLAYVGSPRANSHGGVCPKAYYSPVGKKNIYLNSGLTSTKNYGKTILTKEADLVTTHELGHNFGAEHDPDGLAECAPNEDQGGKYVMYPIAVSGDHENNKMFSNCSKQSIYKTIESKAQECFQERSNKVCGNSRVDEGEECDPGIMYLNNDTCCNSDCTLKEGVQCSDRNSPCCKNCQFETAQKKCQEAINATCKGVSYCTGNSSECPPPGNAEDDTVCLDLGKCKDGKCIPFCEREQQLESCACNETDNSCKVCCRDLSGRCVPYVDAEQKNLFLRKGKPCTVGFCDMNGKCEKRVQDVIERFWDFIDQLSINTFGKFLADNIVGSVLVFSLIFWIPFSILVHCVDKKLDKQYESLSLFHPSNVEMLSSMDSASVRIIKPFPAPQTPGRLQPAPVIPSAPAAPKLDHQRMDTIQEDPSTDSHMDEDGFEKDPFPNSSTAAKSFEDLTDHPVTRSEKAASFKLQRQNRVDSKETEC

The term IC50 denotes the concentration that gives 50% inhibition. On to `CCCCC#CCOc1ccc(S(=O)(=O)N(C)c2c(C)cc(Br)cc2C(=O)NO)cc1` [Example 56, 5-Bromo-2-[(4-hept-2-ynyloxy-benzenesulfonyl)-methyl-amino]-N-hydroxy-3-methyl-benzamide], for which the inhibition at 10 µM on MMP-1 came to 53%. For the same compound, the IC50 against MMP-9 was 389 nM; at MMP-13 it was 701 nM. Further, the inhibition at 3 µM in the test with THP-1 cells came to 16%.
`Cc1cc(Br)cc(C(=O)NO)c1N(C)S(=O)(=O)c1ccc(OCC#Cc2cccc(O)c2)cc1` [Example 84, 5-Bromo-N-hydroxy-2-({4-[3-(3-hydroxy-phenyl)-prop-2-ynyloxy]-benzenesulfonyl}-methyl-amino)-3-methyl-benzamide]: the IC50 against MMP-1 was determined as 113 nM; at MMP-9, 694 nM; on MMP-13, 189 nM; in test [1], 34 nM. Further, in the test with THP-1 cells, the inhibition at 3 µM amounted to 0%.
In the same order, the values of `C#CCOc1ccc(S(=O)(=O)N(C)c2c(C)cc(Br)cc2C(=O)NO)cc1` [Example 53, 5-Bromo-N-hydroxy-3-methyl-2-[methyl-(4-prop-2-ynyloxy-benzenesulfonyl)-amino]-benzamide] are 113 nM, 15 nM, 52 nM, 11 nM and 55%.
For the compound `CC#CCOc1ccc(S(=O)(=O)N(C)c2c(C)cc(I)cc2C(=O)NO)cc1` [Example 63, 2-[(4-But-2-ynyloxy-benzenesulfonyl)-methyl-amino]-N-hydroxy-5-iodo-3-methyl-benzamide], the half-inhibitory concentration (IC50) on MMP-1 amounted to 901 nM; against MMP-9, 840 nM; against MMP-13, 275 nM; in test [1] it was 16 nM. Moreover, the inhibition at 3 µM in the test with THP-1 cells came out at 87%.
For `CCN(CC)CC#CCOc1ccc(S(=O)(=O)N(C)c2c(C)cc(Br)cc2C(=O)NO)cc1` [Example 66, 5-Bromo-2-{[4-(4-diethylamino-but-2-ynyloxy)-benzenesulfonyl]-methyl-amino}-N-hydroxy-3-methyl-benzamide], the inhibition at 10 µM at MMP-1 was 21%. Also, the values for the half-maximal inhibitory concentration (IC50) (against MMP-9; against MMP-13; in test [1]) were 2830 nM, 2380 nM and 346 nM, respectively. Further, in the test on THP-1 cells, the inhibition at 3 µM was determined as 5%.
As to `C#CC(C)Oc1ccc(S(=O)(=O)N(C)c2c(C)cc(Br)cc2C(=O)NO)cc1` (stereo not shown) [Example 79, 5-Bromo-N-hydroxy-3-methyl-2-{methyl-[4-(1-methyl-prop-2-ynyloxy)-benzenesulfonyl]-amino}-benzamide], the IC50 at MMP-1 is 1530 nM; at MMP-9, 455 nM; against MMP-13, 433 nM; in test [1], 122 nM. For the same compound, the inhibition at 3 µM in the test with THP-1 cells stood at 9%.
As to `COc1cccc(C#CCOc2ccc(S(=O)(=O)N(C)c3c(C)cc(Br)cc3C(=O)NO)cc2)c1` [Example 60, 5-Bromo-N-hydroxy-2-({4-[3-(3-methoxy-phenyl)-prop-2-ynyloxy]-benzenesulfonyl}-methyl-amino)-3-methyl-benzamide], the IC50 against MMP-1 turned out to be 1030 nM; against MMP-9, 671 nM; against MMP-13, 935 nM; in test [1] it was 91 nM. Besides, in the test on THP-1 cells, the inhibition at 3 µM was determined as 1%.
On to `Cc1cc(Br)cc(C(=O)NO)c1N(C)S(=O)(=O)c1ccc(OCC#CCO)cc1` [Example 70, 5-Bromo-N-hydroxy-2-{[4-(4-hydroxy-but-2-ynyloxy)-benzenesulfonyl]-methyl-amino}-3-methyl-benzamide], for which the half-inhibitory concentration (IC50) at MMP-1 worked out at 3200 nM; at MMP-9, 477 nM; against MMP-13, 83 nM. The inhibition at 3 µM with THP-1 cells came to 88%.
Regarding `CC#CCOc1ccc(S(=O)(=O)N(C)c2c(C)cc(Br)cc2C(=O)NO)cc1` [Example 54, 5-Bromo-2-[(4-But-2-ynyloxy-benzenesulfonyl)-methyl-amino]-N-hydroxy-3-methyl-benzamide], the IC50 against MMP-1 amounted to 1620 nM; on MMP-9 it was 304 nM; at MMP-13, 154 nM. In the test with THP-1 cells, the inhibition at 3 µM worked out at 84%.
For the compound `Cc1cc(Br)cc(C(=O)NO)c1N(C)S(=O)(=O)c1ccc(OCC#Cc2ccccc2)cc1` [Example 59, 5-Bromo-N-hydroxy-3-methyl-2-{methyl-[4-(3-phenyl-prop-2-ynyloxy)-benzenesulfonyl]-amino}-benzamide], the results for the half-inhibitory concentration (IC50) (on MMP-9; on MMP-13; in test [1]) were 857 nM, 321 nM and 66 nM, respectively. Also, the inhibition at 3 µM with THP-1 cells was found to be 20%.
`COc1ccc(S(=O)(=O)N(C)c2c(C)cc(Br)cc2C(=O)NO)cc1` [Example 36, 5-Bromo-N-hydroxy-2-[(4-methoxy-benzenesulfonyl)-methyl-amino]-3-methyl-benzamide]: the concentration for half-maximal inhibition (IC50) turned out to be 11 nM at MMP-9 and 21 nM against MMP-13. The inhibition at 3 µM in the test on THP-1 cells came out at 14%.
